From publication PMC11597817, “Modulation of Multispecific Transporters by Uncaria tomentosa Extract and Its Major Phytoconstituents” (Pharmaceutics, 2024)
Where two headings read alike, the source gives them in different places.

Tests used:
OAT2 = molecular target: T1, OAT2 (Homo sapiens, UniProt Q9Y694); assay: Uptake inhibition assay, OAT2-overexpressing HEK293 cells; format: cell-based; details: at 100 µM
T1 construct: expressed in transfected cells; host or cells: HEK293 (lentiviral transduction; cDNA synthesised by GenScript)
T1 sequence (Q9Y694 1-546 isoform Q9Y694-2): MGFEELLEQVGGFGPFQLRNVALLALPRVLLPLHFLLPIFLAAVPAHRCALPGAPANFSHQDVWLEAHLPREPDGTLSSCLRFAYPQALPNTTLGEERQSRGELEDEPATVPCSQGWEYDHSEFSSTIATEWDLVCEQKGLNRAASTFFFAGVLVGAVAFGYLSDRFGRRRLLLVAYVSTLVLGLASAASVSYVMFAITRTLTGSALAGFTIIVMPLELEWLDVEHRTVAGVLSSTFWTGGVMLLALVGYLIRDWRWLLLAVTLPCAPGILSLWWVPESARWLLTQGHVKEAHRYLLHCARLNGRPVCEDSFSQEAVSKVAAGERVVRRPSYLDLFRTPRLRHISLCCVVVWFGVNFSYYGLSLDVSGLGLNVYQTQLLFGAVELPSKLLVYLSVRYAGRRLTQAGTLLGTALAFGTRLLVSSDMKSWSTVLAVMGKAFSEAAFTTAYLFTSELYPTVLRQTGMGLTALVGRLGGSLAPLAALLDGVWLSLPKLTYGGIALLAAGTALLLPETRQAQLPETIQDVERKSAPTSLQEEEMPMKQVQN
Procedure: (§1) The human embryonic kidney 293 (HEK293) cell line was purchased from Invitrogen/ThermoFisher (Waltham, MA, USA). Madin–Darby canine kidney II (MDCKII) wild type cells were obtained from the European Collection of Authenticated Cell Cultures (ECACC catalog no. 00062107). […]
(§2) Plated cells were preincubated with a transport buffer (HBSS) containing 30 or 150 µg/mL of UT extract or 100 µM of isopteropodine, mitraphylline, or uncarine D for 15 min at an appropriate temperature. […] For radiolabeled substrates, accumulation was measured by liquid scintillation counting (MicroBeta Scintillation Counter, PerkinElmer).
(§3) The transporter-mediated uptake and ATP-dependent transport were determined by subtracting the activity of the control cell/transporter abundant-membrane in the presence of AMP from the activity of the transporter-overexpressing cell/transporter-abundant membrane in the presence of ATP. The relative transporter-specific accumulation was expressed as the percent of DMSO activity. […] Confidence intervals (CIs) of 95% were also determined. […]

SGLT2 = molecular target: T2, SGLT2 (Homo sapiens, UniProt P31639); assay: Uptake inhibition assay, SGLT2-overexpressing HEK293 cells; format: cell-based
T2 construct: expressed in transfected cells; host or cells: HEK293 (lentiviral transduction; cDNA synthesised by GenScript)
T2 sequence (P31639 whole entry): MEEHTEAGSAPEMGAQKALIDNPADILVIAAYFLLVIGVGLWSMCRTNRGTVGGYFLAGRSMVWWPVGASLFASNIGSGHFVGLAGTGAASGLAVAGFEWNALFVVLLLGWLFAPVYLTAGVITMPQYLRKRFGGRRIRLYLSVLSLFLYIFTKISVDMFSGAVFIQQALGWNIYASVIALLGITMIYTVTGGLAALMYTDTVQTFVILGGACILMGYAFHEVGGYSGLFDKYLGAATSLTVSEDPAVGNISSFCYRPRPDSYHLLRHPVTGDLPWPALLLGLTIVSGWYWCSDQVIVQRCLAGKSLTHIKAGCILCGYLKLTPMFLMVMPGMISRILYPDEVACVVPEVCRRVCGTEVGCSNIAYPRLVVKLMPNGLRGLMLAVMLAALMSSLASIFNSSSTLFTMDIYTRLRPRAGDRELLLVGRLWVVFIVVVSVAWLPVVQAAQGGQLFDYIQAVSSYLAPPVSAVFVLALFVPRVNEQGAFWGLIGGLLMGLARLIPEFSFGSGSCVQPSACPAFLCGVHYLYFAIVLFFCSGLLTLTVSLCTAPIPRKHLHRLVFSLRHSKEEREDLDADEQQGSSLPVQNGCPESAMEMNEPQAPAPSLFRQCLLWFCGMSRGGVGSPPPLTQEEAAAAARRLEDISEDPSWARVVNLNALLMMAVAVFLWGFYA
Procedure: as §1, §2, §3

OAT1 = molecular target: T3, OAT1 (Homo sapiens, UniProt Q4U2R8); assay: Uptake inhibition assay, OAT1-overexpressing HEK293 cells; format: cell-based; details: at 100 µM
T3 construct: expressed in transfected cells; host or cells: HEK293 (lentiviral transduction; cDNA synthesised by GenScript)
T3 sequence (Q4U2R8 whole entry): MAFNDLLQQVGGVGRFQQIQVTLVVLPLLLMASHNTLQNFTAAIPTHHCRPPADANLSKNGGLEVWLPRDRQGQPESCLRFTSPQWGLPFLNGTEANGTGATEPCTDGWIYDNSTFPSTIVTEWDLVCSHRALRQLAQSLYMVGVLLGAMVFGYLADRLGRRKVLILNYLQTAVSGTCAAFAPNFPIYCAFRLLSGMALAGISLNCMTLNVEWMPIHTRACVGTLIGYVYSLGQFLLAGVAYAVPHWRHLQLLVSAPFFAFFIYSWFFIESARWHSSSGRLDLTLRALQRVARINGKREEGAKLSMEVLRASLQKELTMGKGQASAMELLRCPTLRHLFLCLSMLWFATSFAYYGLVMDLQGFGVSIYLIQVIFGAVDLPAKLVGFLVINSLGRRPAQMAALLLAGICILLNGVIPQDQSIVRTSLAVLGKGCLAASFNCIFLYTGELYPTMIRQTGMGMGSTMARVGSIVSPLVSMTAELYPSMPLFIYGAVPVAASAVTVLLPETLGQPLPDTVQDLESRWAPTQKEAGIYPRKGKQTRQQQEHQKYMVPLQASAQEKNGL
Procedure: as §1, §2, §3

OATP1A2 = molecular target: T4, OATP1A2 (Homo sapiens, UniProt P46721); assay: Uptake inhibition assay, OATP1A2-overexpressing HEK293 cells; format: cell-based; details: oxindole alkaloids; substrate E3S; read-out: IC50 (95% CI of IC50)
T4 construct: expressed in transfected cells; host or cells: HEK293 (lentiviral transduction; cDNA synthesised by GenScript)
T4 sequence (P46721 whole entry): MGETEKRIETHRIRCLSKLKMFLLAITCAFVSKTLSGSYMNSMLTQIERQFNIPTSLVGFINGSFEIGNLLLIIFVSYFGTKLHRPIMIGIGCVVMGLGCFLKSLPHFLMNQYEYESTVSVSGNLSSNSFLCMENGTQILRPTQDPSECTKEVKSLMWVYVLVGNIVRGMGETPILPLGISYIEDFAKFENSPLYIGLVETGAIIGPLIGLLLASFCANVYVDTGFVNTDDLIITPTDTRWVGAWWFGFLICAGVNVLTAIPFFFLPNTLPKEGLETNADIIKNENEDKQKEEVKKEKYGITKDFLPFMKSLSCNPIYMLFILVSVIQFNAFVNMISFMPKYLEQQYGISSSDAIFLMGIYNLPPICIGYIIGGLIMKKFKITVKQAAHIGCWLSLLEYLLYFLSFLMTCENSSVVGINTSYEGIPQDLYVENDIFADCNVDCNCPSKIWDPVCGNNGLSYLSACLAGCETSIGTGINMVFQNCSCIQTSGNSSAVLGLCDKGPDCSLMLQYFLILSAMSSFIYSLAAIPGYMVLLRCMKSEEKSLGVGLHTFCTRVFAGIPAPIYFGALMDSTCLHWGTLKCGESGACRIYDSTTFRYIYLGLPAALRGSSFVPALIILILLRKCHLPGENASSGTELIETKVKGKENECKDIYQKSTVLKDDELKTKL
Procedure: as §1, §2, §3

OATP1B3 = molecular target: T5, OATP1B3 (Homo sapiens, UniProt Q9NPD5); assay: Uptake inhibition assay, OATP1B3-overexpressing HEK293 cells; format: cell-based; details: oxindole alkaloids, substrate CCK-8, read-out: IC50 (95% CI of IC50)
T5 construct: expressed in transfected cells; host or cells: HEK293 (lentiviral transduction; cDNA synthesised by GenScript)
T5 sequence (Q9NPD5 whole entry): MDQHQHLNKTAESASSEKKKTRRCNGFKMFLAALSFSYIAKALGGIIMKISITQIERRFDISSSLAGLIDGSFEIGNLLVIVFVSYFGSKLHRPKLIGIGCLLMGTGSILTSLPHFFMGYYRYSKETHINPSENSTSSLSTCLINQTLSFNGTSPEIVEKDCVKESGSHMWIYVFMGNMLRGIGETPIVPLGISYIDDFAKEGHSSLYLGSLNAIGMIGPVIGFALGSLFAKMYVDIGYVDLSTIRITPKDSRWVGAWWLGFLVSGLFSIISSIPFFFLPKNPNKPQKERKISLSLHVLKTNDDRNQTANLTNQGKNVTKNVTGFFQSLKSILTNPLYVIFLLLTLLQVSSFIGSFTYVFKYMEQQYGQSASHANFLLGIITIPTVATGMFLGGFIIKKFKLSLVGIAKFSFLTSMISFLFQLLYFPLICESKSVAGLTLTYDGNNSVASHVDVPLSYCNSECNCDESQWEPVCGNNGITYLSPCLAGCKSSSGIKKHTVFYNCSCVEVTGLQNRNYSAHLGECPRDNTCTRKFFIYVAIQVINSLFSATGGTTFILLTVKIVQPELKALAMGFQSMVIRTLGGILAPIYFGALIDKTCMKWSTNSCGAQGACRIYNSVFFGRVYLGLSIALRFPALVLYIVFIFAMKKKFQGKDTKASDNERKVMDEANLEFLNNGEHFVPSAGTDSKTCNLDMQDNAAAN
Procedure: as §1, §2, §3

OCTN1 = molecular target: T6, OCTN1 (Homo sapiens, UniProt Q9H015); assay: Uptake inhibition assay, OCTN1-overexpressing HEK293 cells; format: cell-based; details: in the presence of the alkaloid (100 µM, Figure 3)
T6 construct: expressed in transfected cells; host or cells: HEK293 (lentiviral transduction; cDNA synthesised by GenScript)
T6 sequence (Q9H015 whole entry): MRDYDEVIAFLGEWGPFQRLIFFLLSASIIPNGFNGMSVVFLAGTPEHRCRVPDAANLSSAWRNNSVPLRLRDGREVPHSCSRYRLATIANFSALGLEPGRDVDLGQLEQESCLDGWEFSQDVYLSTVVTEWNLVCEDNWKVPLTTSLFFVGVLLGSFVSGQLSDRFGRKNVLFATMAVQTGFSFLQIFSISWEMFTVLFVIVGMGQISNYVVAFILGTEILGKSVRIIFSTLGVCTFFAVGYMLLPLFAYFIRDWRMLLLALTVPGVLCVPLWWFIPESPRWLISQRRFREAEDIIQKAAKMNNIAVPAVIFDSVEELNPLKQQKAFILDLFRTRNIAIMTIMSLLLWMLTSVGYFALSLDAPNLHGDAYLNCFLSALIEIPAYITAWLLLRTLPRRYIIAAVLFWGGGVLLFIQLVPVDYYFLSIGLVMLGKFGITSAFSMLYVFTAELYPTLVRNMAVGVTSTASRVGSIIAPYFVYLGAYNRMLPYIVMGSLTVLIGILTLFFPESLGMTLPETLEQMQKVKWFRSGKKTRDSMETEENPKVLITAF
Procedure: as §1, §2, §3

MRPs = details: cited from earlier work
ENT1 = molecular target: T7, ENT1 (Homo sapiens, UniProt Q99808); assay: Uptake inhibition assay, ENT1-overexpressing MDCKII cells; format: cell-based; details: for IC50: oxindole alkaloids, substrate uridine, read-out: IC50 (95% CI of IC50)
T7 construct: expressed in transfected cells; host or cells: MDCKII (lentiviral transduction; cDNA synthesised by GenScript)
T7 sequence (Q99808 1-456): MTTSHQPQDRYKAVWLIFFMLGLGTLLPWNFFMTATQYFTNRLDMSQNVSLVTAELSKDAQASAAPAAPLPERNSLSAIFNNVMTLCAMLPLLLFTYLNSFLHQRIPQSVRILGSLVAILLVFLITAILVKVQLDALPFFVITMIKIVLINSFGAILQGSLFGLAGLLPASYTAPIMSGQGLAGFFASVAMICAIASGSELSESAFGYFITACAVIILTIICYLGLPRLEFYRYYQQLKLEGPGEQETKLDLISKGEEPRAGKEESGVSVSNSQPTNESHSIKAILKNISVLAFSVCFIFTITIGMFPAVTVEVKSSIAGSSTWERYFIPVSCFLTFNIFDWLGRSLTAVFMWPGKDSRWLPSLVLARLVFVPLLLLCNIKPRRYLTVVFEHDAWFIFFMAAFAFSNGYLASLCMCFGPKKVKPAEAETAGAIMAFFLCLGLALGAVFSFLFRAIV
From the text: The human embryonic kidney 293 (HEK293) cell line was purchased from Invitrogen/ThermoFisher (Waltham, MA, USA). Madin–Darby canine kidney II (MDCKII) wild type cells were obtained from the European Collection of Authenticated Cell Cultures (ECACC catalog no. 00062107). HEK293 cells overexpressing the human uptake OATP1B1 (NCBI Reference Sequence: NM_006446.4), OATP1B3 (NM_019844), OATP2B1 (NM_007256), OATP1A2 (NM_134431), OAT1-3 (BC033682.1; NM_006672.3; BC022387), OCT1-3 (BC126364.1; NM_003058; NM_021977), OCTN1 (NM_003059.3), NTCP (NM_003049.3), MATE1 (NM_018242.3), MATE2K (NM_001099646.2), ENT4 (NM_001040661.1), SGLT2 (AJ133127.1), ASCT1/2 (NM_003038.5; NM_005628.3), LAT1/2 (NM_003486.6; NM_012244.4), and THTR1/2 (NM_006996; NM_025243) and mock and human efflux BCRP (NM_004827.2), BSEP (NM_003742.2), MDR1 (NM_000927.4), and MRP1-5 (NM_004996; NM_000392.4; BC137347.1; NM_005845.4; NM_005688.2) transporters as well as MDCKII overexpressing human ENT1/2 (NM_001078177; NM_001532.2) and URAT1 (BC053348) transporters were created by lentiviral transduction. The cDNA encoding respective transporters were synthetized and cloned by GenScript (Piscataway, NJ, USA). […]
as §2, §3

SMILES	decrease of transporter-mediated transport (OAT2)	decrease of transporter-mediated transport (SGLT2; at 100 µM)	IC50 (SGLT2; oxindole alkaloids, substrate AMG, read-out: IC50 (95% CI of IC50)) [µM]	decrease of transporter-mediated transport (OAT1)	IC50 (OATP1A2) [µM]	IC50 (OATP1B3; listed as Isopteropodine) [µM]	IC50 (OATP1B3) [µM]	transporter-mediated substrate accumulation (OCTN1)	interaction with MRPs (MRPs)	transporter-mediated substrate accumulation (ENT1; in the presence of the alkaloid (100 µM, Figure 3))	IC50 (ENT1; listed as Mitraphylline) [µM]	IC50 (ENT1) [µM]
COC(=O)C1=CO[C@@H](C)[C@@H]2CN3CC[C@@]4(C(=O)Nc5ccccc54)[C@@H]3C[C@H]12 [isopteropodine]	around 50%	around 50%	72.7	around 50%	36.1	24.6	24.6					
COC(=O)C1=CO[C@@H](C)[C@H]2CN3CC[C@]4(C(=O)Nc5ccccc54)[C@@H]3C[C@H]12 [mitraphylline]								below 50%	not to interact with MRPs	below 50%	49.6	49.6
